Data from US4468403A, “Analgesic substituted piperidylidene-2-sulfon(cyan)amide derivatives” (priority 1982, dated 1984).
Read-outs that look alike come from different tables or passages of the source.

Format: in vivo, male Swiss albino mice
Conditions: for Analgesic action, inhibition action on phenylquinone writhing: dose giving 50 % inhibition / Analgesic action, inhibition action on phenylquinone writhing, % inhibition: subcutaneous; for Analgesic action, inhibition action on phenylquinone writhing: dose giving 50 % inhibition: 30 min before phenyl-p-benzoquinone, dose with 50 % inhibition; for % Inhibn, control (single agent) in antagonist study: alone; for Analgesic (agonist) activity, in words: phenylquinone writhing, mice
Protocol: The percent change is calculated according to the following equation: % change=100- (no. of writhes in treated group/no. of writhes in control group)×100.

[1] = at the dose listed for the substance under E1

| SMILES | Analgesic action, inhibition action on phenylquinone writhing: dose giving 50 % inhibition [mg/kg] | Analgesic action, inhibition action on phenylquinone writhing, % inhibition [1] [%] | Analgesic (agonist) activity, in words | further results |
| --- | --- | --- | --- | --- |
| CN1CCCC(Br)C1=NC#N (racemic) [Compound 0-1, 3-Bromo-1-methylpiperidylidene-2-cyanamide] | 0.7 | 50 | – | – |
| CC(=O)Oc1ccccc1C(=O)O [Aspirin (TM), reference compound] | 50.0 | 50 | – | – |
| CN1CCCCC1=NS(C)(=O)=O [Compound W-1, 1-Methylpiperidylidene-2-methanesulfonamide] | 108.0 | 50 | – | – |
| CN1CCCCC1=NS(=O)(=O)c1ccccc1 [Compound W-2, 1-Methylpiperidylidene-2-benzenesulfonamide] | 68.0 | 50 | – | – |
| CN1CCCCC1=NS(=O)(=O)c1ccc(Cl)cc1 [Compound W-3, 1-Methylpiperidylidene-2-(4-chlorophenyl)sulfonamide] | 0.0038 | 50 | active analgesics, being comparable to morphine sulfate | % Inhibn, control (single agent) in antagonist study (2.0 mg/kg sc): 97%; % Inhibn, control (single agent) in antagonist study (5.0 mg/kg sc): 100% |
| COc1ccc(S(=O)(=O)N=C2CCCCN2C)cc1 [Compound W-4, 1-Methylpiperidylidene-2-(4-methoxyphenyl)sulfonamide] | 0.002 | 50 | active analgesics, being comparable to morphine sulfate | – |
| Cc1ccc(S(=O)(=O)N=C2CCCCN2C)cc1 [Compound W-5, 1-Methylpiperidylidene-2-(4-methylphenyl)sulfonamide] | 2.4 | 50 | – | – |
| CN1CCCCC1=NS(=O)(=O)c1ccc([N+](=O)[O-])cc1 [Compound W-6, 1-Methylpiperidylidene-2-(4-nitrophenyl)sulfonamide] | 0.0028 | 50 | active analgesics, being comparable to morphine sulfate | – |
| CN1CCCCC1=NS(=O)(=O)c1cccc([N+](=O)[O-])c1 [Compound W-7, 1-Methylpiperidylidene-2-(3-nitrophenyl)sulfonamide] | 0.0028 | 50 | active analgesics, being comparable to morphine sulfate | – |
| CN1CCCCC1=NS(=O)(=O)c1ccccc1[N+](=O)[O-] [Compound W-8, 1-Methylpiperidylidene-2-(2-nitrophenyl)sulfonamide] | 0.0018 | 50 | active analgesics, being comparable to morphine sulfate | – |
| CN1CCCCC1=NS(=O)(=O)c1ccc(N)cc1 [Compound W-9, 1-Methylpiperidylidene-2-(4-aminophenyl)sulfonamide] | 0.007 | 50 | active analgesics, being comparable to morphine sulfate | – |
| CN1CCCCC1=NS(=O)(=O)c1cccc(N)c1 [Compound W-10, 1-Methylpiperidylidene-2-(3-aminophenyl)sulfonamide] | 0.0017 | 50 | active analgesics, being comparable to morphine sulfate | – |
| CN1CCCCC1=NS(=O)(=O)c1ccccc1N [Compound W-11, 1-Methylpiperidylidene-2-(2-aminophenyl)sulfonamide] | 0.00024 | 50 | active analgesics, being comparable to morphine sulfate | – |
| CC(=O)Nc1ccc(S(=O)(=O)N=C2CCCCN2C)cc1 [Compound W-12, 1-Methylpiperidylidene-2-(4-acetamidophenyl)sulfonamide] | 1.2 | 50 | – | – |
| CN1CCCCC1=NC#N [Compound W-13, 1-Methylpiperidylidene-2-cyanamide] | 6.0 | 50 | – | – |
| CN1CCCCC1=NS(=O)(=O)c1cccnc1 [Compound W-14, 1-Methylpiperidylidene-2-(3-pyridyl)sulfonamide] | 0.00038 | 50 | active analgesics, being comparable to morphine sulfate | – |
| O=S(=O)(N=C1CCCCN1CCc1ccccc1)c1ccc(Cl)cc1 [Compound W-15, 1-Phenylethylpiperidylidene-2-(4-chlorophenyl)sulfonamide] | 0.007 | 50 | active analgesics, being comparable to morphine sulfate | – |

| SMILES | Analgesic action, inhibition action on phenylquinone writhing: dose giving 50 % inhibition [mg/kg] | Analgesic action, inhibition action on phenylquinone writhing, % inhibition [1] [%] | Analgesic (agonist) activity, in words | further results |
| --- | --- | --- | --- | --- |
| Nc1ccc(S(=O)(=O)N=C2CCCCN2CCc2ccccc2)cc1 [Compound W-16, 1-Phenylethylpiperidylidene-2-(4-aminophenyl)sulfonamide] | – | – | active analgesics, being comparable to morphine sulfate | Analgesic action, inhibition action on phenylquinone writhing, % inhibition (dose 0.20 mg/kg): 56% |
| O=S(=O)(N=C1CCCCN1CCc1ccccc1)c1cccnc1 [Compound W-17, 1-Phenylethylpiperidylidene-2-(3-pyridyl)sulfonamide] | – | – | active analgesics, being comparable to morphine sulfate | Analgesic action, inhibition action on phenylquinone writhing, % inhibition (dose 0.20 mg/kg): 65% |
| O=[N+]([O-])c1ccc(CCN2CCCCC2=NS(=O)(=O)c2ccc(Cl)cc2)cc1 [Compound W-18, 1-(4-Nitrophenylethyl)piperidylidene-2-(4-chlorophenyl)sulfonamide] | – | 50 | – | – |
| Nc1ccc(CCN2CCCCC2=NS(=O)(=O)c2ccc(Cl)cc2)cc1 [Compound W-19, 1-(4-Aminophenylethyl)piperidylidene-2-(4-chlorophenyl)sulfonamide] | – | 50 | – | – |
| Nc1ccc(S(=O)(=O)N=C2CCCCN2CC2CC2)cc1 [Compound W-21, 1-Cyclopropylmethylpiperidylidene-2-(4-aminophenyl)sulfonamide] | – | – | – | Analgesic action, inhibition action on phenylquinone writhing, % inhibition (dose 2.0 mg/kg (Table 3)): 49% |
| O=S(=O)(N=C1CCCCN1CC1CC1)c1cccnc1 [Compound W-22, 1-Cyclopropylmethylpiperidylidene-2-(3-pyridyl)sulfonamide] | 2.0 | – | – | Analgesic action, inhibition action on phenylquinone writhing, % inhibition (dose 2.0 mg/kg (Table 3)): 50% |
| O=S(=O)(N=C1CCCCN1CC1CCC1)c1ccc(Cl)cc1 [Compound W-23, 1-Cyclobutylmethylpiperidylidene-2-(4-chlorophenyl)sulfonamide] | 0.01 | 50 | – | – |
| Nc1ccc(S(=O)(=O)N=C2CCCCN2CC2CCC2)cc1 [Compound W-24, 1-Cyclobutylmethylpiperidylidene-2-(4-aminophenyl)sulfonamide] | – | – | – | Analgesic action, inhibition action on phenylquinone writhing, % inhibition (dose 0.20 mg/kg): 61% |
| O=S(=O)(N=C1CCCCN1CC1CCC1)c1cccnc1 [Compound W-25, 1-Cyclobutylmethylpiperidylidene-2-(3-pyridyl)sulfonamide] | – | – | – | Analgesic action, inhibition action on phenylquinone writhing, % inhibition (dose 0.20 mg/kg): 69% |
| CCCN1CCCCC1=NS(=O)(=O)c1ccc(Cl)cc1 [Compound W-26, 1-n-Propylpiperidylidene-2-(4-chlorophenyl)sulfonamide] | 1.4 | 50 | – | – |
| CCCN1CCCCC1=NS(=O)(=O)c1ccc(N)cc1 [Compound W-27, 1-n-Propylpiperidylidene-2-(4-aminophenyl)sulfonamide] | – | – | – | Analgesic action, inhibition action on phenylquinone writhing, % inhibition (dose 2.0 mg/kg (Table 3)): 59% |
| CCCN1CCCCC1=NS(=O)(=O)c1cccnc1 [Compound W-28, 1-n-Propylpiperidylidene-2-(3-pyridyl)sulfonamide] | – | – | – | Analgesic action, inhibition action on phenylquinone writhing, % inhibition (dose 2.0 mg/kg (Table 3)): 82% |
| CC(C)CN1CCCCC1=NS(=O)(=O)c1ccc(Cl)cc1 [Compound W-29, 1-Isobutylpiperidylidene-2-(4-chlorophenyl)sulfonamide] | 2.0 | – | – | Analgesic action, inhibition action on phenylquinone writhing, % inhibition (dose 2.0 mg/kg (Table 3)): 50% |
| CC(C)CN1CCCCC1=NS(=O)(=O)c1ccc(N)cc1 [Compound W-30, 1-Isobutylpiperidylidene-2-(4-aminophenyl)sulfonamide] | – | – | – | Analgesic action, inhibition action on phenylquinone writhing, % inhibition (dose 2.0 mg/kg (Table 3)): 59% |
| CC(C)CN1CCCCC1=NS(=O)(=O)c1cccnc1 [Compound W-31, 1-Isobutylpiperidylidene-2-(3-pyridyl)sulfonamide] | – | – | – | Analgesic action, inhibition action on phenylquinone writhing, % inhibition (dose 2.0 mg/kg (Table 3)): 65% |
| C/C=C/N1CCCCC1=NS(=O)(=O)c1ccc(Cl)cc1 [Compound W-32, E-1-(1-Propenyl)piperidylidene-2-(4-chlorophenyl)sulfonamide] | 0.013 | 50 | – | – |
| CCC(=O)O[C@](Cc1ccccc1)(c1ccccc1)[C@H](C)CN(C)C [Dextropropoxyphene (TM), reference compound] | 56.0 | 50 | – | – |
